Consider 24 compounds from patent US20250145585A1, “HETEROCYCLIC INHIBITORS OF IGF-1R FOR TREATMENT OF DISEASE” (HORIZON THERAPEUTICS IRELAND DAC, priority 2023, published 2025).

Experiment [1] has as its target T1, IGF-1R (Homo sapiens, UniProt P08069).
T1 construct: expressed in transfected cells
The experiment is described as follows: Example B-1: IGF-1R Assay (PC3 cells stimulated with IGF1, AlphaLISA on cell lysates). The conditions noted are these: compound two hours, IGF1 200 ng/mL for 30 min, read-out: IC50, Biological Activity against IGF-1R (Table B1). The experiment is classed as cell-based. In a few lines: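 PC3 cells serum-starved 2 h, treated 2 h with 3-fold serially diluted compound, then stimulated 30 min with IGF1 (200 ng/mL final). Lysates analysed by AlphaLISA; % inhibition calculated relative to vehicle and EC80 controls, IC50 derived.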

The target of experiment [2] is T1, IGF-1R. The experiment is described as follows: Example B-2: IGF-1R Assay (PathHunter cell lines, EC80 agonist challenge, chemiluminescent detection). The experiment is classed as cell-based. The settings on record: PathHunter cells, compound 60 minutes at 37° C., EC80 agonist 3 hours; read-out: IC50, Biological Activity against IGF-1R (Table B2). In outline:
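PathHunter cells were pre-incubated with compound for 60 min at 37° C (1% vehicle), then challenged with EC80 agonist for 3 h at room temperature. Chemiluminescent detection after 1 h gave % inhibition relative to EC80 and vehicle controls, from which IC50 was derived.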

A value given as a limit tells only on which side of the number the result lay.

T1 sequence (P08069 31-1367): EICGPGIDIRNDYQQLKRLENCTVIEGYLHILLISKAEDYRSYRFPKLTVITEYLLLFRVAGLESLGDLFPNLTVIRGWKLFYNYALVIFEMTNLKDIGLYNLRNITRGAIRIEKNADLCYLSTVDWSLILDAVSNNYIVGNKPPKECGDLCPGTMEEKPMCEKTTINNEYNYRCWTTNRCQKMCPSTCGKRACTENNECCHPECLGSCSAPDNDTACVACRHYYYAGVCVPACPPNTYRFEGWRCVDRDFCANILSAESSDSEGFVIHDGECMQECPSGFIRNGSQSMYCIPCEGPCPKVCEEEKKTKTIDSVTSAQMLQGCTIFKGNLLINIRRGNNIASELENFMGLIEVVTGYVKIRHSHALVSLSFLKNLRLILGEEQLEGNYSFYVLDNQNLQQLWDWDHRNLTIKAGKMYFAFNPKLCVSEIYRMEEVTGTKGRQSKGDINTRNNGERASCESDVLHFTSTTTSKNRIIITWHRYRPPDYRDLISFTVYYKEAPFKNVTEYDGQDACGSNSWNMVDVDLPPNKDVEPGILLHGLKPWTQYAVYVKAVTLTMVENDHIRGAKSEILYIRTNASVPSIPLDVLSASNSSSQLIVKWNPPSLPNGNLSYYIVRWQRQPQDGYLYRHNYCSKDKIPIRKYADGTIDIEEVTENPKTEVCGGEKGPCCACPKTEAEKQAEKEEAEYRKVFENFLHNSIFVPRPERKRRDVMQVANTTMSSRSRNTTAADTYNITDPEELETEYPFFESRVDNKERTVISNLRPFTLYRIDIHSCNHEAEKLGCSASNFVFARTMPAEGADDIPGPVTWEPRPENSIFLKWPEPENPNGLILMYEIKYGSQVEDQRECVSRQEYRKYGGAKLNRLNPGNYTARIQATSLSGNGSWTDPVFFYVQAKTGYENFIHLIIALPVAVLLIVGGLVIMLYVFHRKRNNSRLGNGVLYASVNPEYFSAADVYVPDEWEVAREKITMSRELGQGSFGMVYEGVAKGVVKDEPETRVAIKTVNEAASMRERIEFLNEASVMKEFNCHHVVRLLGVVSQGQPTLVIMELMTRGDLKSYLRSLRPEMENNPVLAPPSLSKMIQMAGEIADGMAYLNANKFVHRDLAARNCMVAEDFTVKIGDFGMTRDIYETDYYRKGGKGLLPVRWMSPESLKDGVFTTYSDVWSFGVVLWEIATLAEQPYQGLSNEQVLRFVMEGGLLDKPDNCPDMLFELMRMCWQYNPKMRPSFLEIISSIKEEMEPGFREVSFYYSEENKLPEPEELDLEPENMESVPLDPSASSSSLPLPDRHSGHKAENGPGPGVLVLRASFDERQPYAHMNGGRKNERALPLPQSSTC

Take `COc1c(CN2C(=O)N(c3ccc(S(=O)(=O)C(F)(F)F)cc3)C(=O)C2(C)C)ccnc1N` [Compound 394, 1-((2-amino-3-methoxypyridin-4-yl)methyl)-5,5-dimethyl-3-(4-((trifluoromethyl)sulfonyl)phenyl) imidazolidine-2,4-dione]: the IC50 on IGF-1R [1] and at IGF-1R [2] was at most 500 nM throughout.
With `CC1(C)C(=O)N(c2ccc(S(=O)(=O)C(F)(F)F)cc2)C(=O)N1Cc1ccnc(NC2CCOCC2)c1` [Compound 316, 5,5-dimethyl-1-((2-((tetrahydro-2H-pyran-4-yl)amino)pyridin-4-yl)methyl)-3-(4-((trifluoromethyl)sulfonyl)phenyl) imidazolidine-2,4-dione], the half-inhibitory concentration (IC50) on IGF-1R [1] and on IGF-1R [2] was at most 500 nM in each case.
In the case of `C[C@@H](CC#N)Nc1cc(CN2C(=O)N(c3ccc(C4(C(F)(F)F)CC4)cc3)C(=O)C2(C)C)ccn1` [Compound 139, (S)-3-((4-((5,5-dimethyl-2,4-dioxo-3-(4-(1-(trifluoromethyl)cyclopropyl)phenyl)imidazolidin-1-yl)methyl)pyridin-2-yl)amino)butanenitrile], the IC50 at IGF-1R [1] and at IGF-1R [2] was at most 500 nM in each case.
For the compound `CC1(C)COCCC1Nc1cc(CN2C(=O)N(c3ccc(C4(C(F)(F)F)CC4)cc3)C(=O)C2(C)C)ccn1` (stereo not drawn) [Compound 132, 1-((2-((3,3-dimethyltetrahydro-2H-pyran-4-yl)amino)pyridin-4-yl)methyl)-5,5-dimethyl-3-(4-(1-(trifluoromethyl)cyclopropyl)phenyl) imidazolidine-2,4-dione], the IC50 on IGF-1R [1] was 2000 to 10000 nM; on IGF-1R [2] it was 500 to 2000 nM.
Taken in the same sequence, the figures for `CC1(C)Cc2c(CN3C(=O)N(c4ccc(SC(F)(F)F)cc4)C(=O)C3(C)C)ccnc2N1` [Compound 21, 1-((2,2-dimethyl-2,3-dihydro-1H-pyrrolo[2,3-b]pyridin-4-yl)methyl)-5,5-dimethyl-3-(4-((trifluoromethyl)thio)phenyl)imidazolidine-2,4-dione] were at most 500 nM and at most 500 nM.
With `CC(c1ccnc(N)c1)N1C(=O)N(c2ccc(C3(C(F)(F)F)CC3)cc2)C(=O)C1(C)C` (stereo not drawn) [Compound 135, 1-(1-(2-aminopyridin-4-yl)ethyl)-5,5-dimethyl-3-(4-(1-(trifluoromethyl)cyclopropyl)phenyl) imidazolidine-2,4-dione], the IC50 at IGF-1R [1] and on IGF-1R [2] was at most 500 nM in each case.
In the case of `CC(C)(C)c1ccc(N2C(=O)N(Cc3ccnc(NC4CCCCC4)c3)C(C)(C)C2=O)cc1` [Compound 264, 3-(4-(tert-butyl)phenyl)-1-((2-(cyclohexylamino)pyridin-4-yl)methyl)-5,5-dimethylimidazolidine-2,4-dione], the IC50 at IGF-1R [1] is at most 500 nM; on IGF-1R [2], 500 to 2000 nM.
Consider `CC1(C)C(=O)N(c2ccc(C3(C(F)(F)F)CC3)cc2)C(=O)N1Cc1ccnc(NC2CC3(COC3)C2)c1` [Compound 120, 1-((2-((2-oxaspiro[3.3]heptan-6-yl)amino)pyridin-4-yl)methyl)-5,5-dimethyl-3-(4-(1-(trifluoromethyl)cyclopropyl)phenyl) imidazolidine-2,4-dione], for which the IC50 at IGF-1R [1] and on IGF-1R [2] was at most 500 nM throughout.
`C[C@@H]1COc2c(CN3C(=O)N(c4ccc(C5(C(F)(F)F)CC5)cc4)C(=O)C3(C)C)ccnc2N1` [Compound 25, (R)-5,5-dimethyl-1-((3-methyl-3,4-dihydro-2H-pyrido[3,2-b][1,4]oxazin-8-yl)methyl)-3-(4-(1-(trifluoromethyl)cyclopropyl)phenyl) imidazolidine-2,4-dione]: the IC50 at IGF-1R [1] and at IGF-1R [2] was at most 500 nM in each case.
Turning to `CC1(C)C(=O)N(c2ccc(SC(F)(F)F)cc2)C(=O)N1Cc1ccnc(N)c1P(C)(C)=O` [Compound 389, 1-((2-amino-3-(dimethylphosphoryl)pyridin-4-yl)methyl)-5,5-dimethyl-3-(4-((trifluoromethyl)thio)phenyl) imidazolidine-2,4-dione], the IC50 on IGF-1R [1] and at IGF-1R [2] was 500 to 2000 nM throughout.
Turning to `CC(C)Nc1cc(CN2C(=O)N(c3ccc4c(c3)N(C)C(=O)C43CC3)C(=O)C2(C)C)ccn1` [Compound 185, 1-((2-(isopropylamino)pyridin-4-yl)methyl)-5,5-dimethyl-3-(1′-methyl-2′-oxospiro[cyclopropane-1,3′-indolin]-6′-yl)imidazolidine-2,4-dione], the IC50 on IGF-1R [1] and on IGF-1R [2] was 2000 to 10000 nM each time.
`CC(C)Nc1cc(CN2C(=O)N(c3ccc4c(c3)OCC4(C)C)C(=O)C2(C)C)ccn1` [Compound 189, 3-(3,3-dimethyl-2,3-dihydrobenzofuran-6-yl)-1-((2-(isopropylamino)pyridin-4-yl)methyl)-5,5-dimethylimidazolidine-2,4-dione]: the IC50 on IGF-1R [1] and on IGF-1R [2] was at most 500 nM throughout.
For the compound `CC(C)Nc1cc(CN2C(=O)N(c3ccc4c(C5CC5)n[nH]c4c3)C(=O)C2(C)C)ccn1` [Compound 258, 3-(3-cyclopropyl-1H-indazol-6-yl)-1-((2-(isopropylamino)pyridin-4-yl)methyl)-5,5-dimethylimidazolidine-2,4-dione], the IC50 at IGF-1R [1] and on IGF-1R [2] was 2000 to 10000 nM in each case.
Regarding `CC1(C)C(=O)N(c2ccc(S(=O)(=O)C(F)(F)F)cc2)C(=O)N1Cc1ccnc(NCC(F)F)c1` [Compound 317, 1-((2-((2,2-difluoroethyl)amino)pyridin-4-yl)methyl)-5,5-dimethyl-3-(4-((trifluoromethyl)sulfonyl)phenyl) imidazolidine-2,4-dione], the IC50 at IGF-1R [1] and at IGF-1R [2] was at most 500 nM each time.
On to `CC(C)Nc1cc(CN2C(=O)N(c3ccc(C4CC45CC5)cc3)C(=O)C2(C)C)ccn1` (stereo not drawn) [Compound 97, 1-((2-(isopropylamino)pyridin-4-yl)methyl)-5,5-dimethyl-3-(4-(spiro[2.2]pentan-1-yl)phenyl)imidazolidine-2,4-dione], for which the IC50 on IGF-1R [1] and at IGF-1R [2] was at most 500 nM in each case.
`CC1(C)C(=O)N(c2ccc(S(=O)(=O)C(F)(F)F)cc2)C(=O)N1Cc1ccnc(N[C@H]2[C@@H]3COC[C@@H]32)c1` [Compound 319, 1-((2-(((1R,5S,6r)-3-oxabicyclo[3.1.0]hexan-6-yl)amino)pyridin-4-yl)methyl)-5,5-dimethyl-3-(4-((trifluoromethyl)sulfonyl)phenyl) imidazolidine-2,4-dione]: the IC50 on IGF-1R [1] and on IGF-1R [2] was at most 500 nM throughout.
Turning to `CC1(C)C(=O)N(c2ccc(C3(C(F)(F)F)CC3)cc2)C(=O)N1Cc1ccnc(NC2CC2)c1` [Compound 93, 1-((2-(cyclopropylamino)pyridin-4-yl)methyl)-5,5-dimethyl-3-(4-(1-(trifluoromethyl)cyclopropyl)phenyl)imidazolidine-2,4-dione], the IC50 on IGF-1R [1] and at IGF-1R [2] was at most 500 nM each time.
`CC(C)Nc1cc(CN2C(=O)N(c3ccc4c(c3)N(C)C(=O)C4(C)C)C(=O)C2(C)C)ccn1` [Compound 111, 1-((2-(isopropylamino)pyridin-4-yl)methyl)-5,5-dimethyl-3-(1,3,3-trimethyl-2-oxoindolin-6-yl)imidazolidine-2,4-dione]: the IC50 at IGF-1R [1] and at IGF-1R [2] was 2000 to 10000 nM throughout.
Take `CC(C)Nc1cc(CN2C(=O)N(c3ccc4c(C(F)(F)F)nn(C)c4c3)C(=O)C2(C)C)ccn1` [Compound 256, 1-((2-(isopropylamino)pyridin-4-yl)methyl)-5,5-dimethyl-3-(1-methyl-3-(trifluoromethyl)-1H-indazol-6-yl)imidazolidine-2,4-dione]: the 50% inhibitory concentration (IC50) on IGF-1R [1] was 500 to 2000 nM; at IGF-1R [2] it was 2000 to 10000 nM.
Turning to `CC1(C)C(=O)N(c2ccc(SC(F)(F)F)cc2)C(=O)N1Cc1ccnc(NC2CCOCC2)c1` [Compound 310, 5,5-dimethyl-1-((2-((tetrahydro-2H-pyran-4-yl)amino)pyridin-4-yl)methyl)-3-(4-((trifluoromethyl)thio)phenyl)imidazolidine-2,4-dione], the IC50 on IGF-1R [1] and on IGF-1R [2] was at most 500 nM throughout.
On to `CC1(C)C(=O)N(c2ccc(SC(F)(F)F)cc2)C(=O)N1Cc1ccnc(NC(=O)Nc2cccc(F)c2)c1` [Compound 373, 1-(4-((5,5-dimethyl-2,4-dioxo-3-(4-((trifluoromethyl)thio)phenyl)imidazolidin-1-yl)methyl)pyridin-2-yl)-3-(3-fluorophenyl)urea], for which the IC50 at IGF-1R [1] and on IGF-1R [2] was at most 500 nM each time.
As for `CC(c1ccnc(NC2CCOCC2)c1)N1C(=O)N(c2ccc(C3(C(F)(F)F)CC3)cc2)C(=O)C1(C)C` (stereo not drawn) [Compound 134, 5,5-dimethyl-1-(1-(2-((tetrahydro-2H-pyran-4-yl)amino)pyridin-4-yl)ethyl)-3-(4-(1-(trifluoromethyl)cyclopropyl)phenyl) imidazolidine-2,4-dione], the IC50 is at most 500 nM on IGF-1R [1] and 500 to 2000 nM on IGF-1R [2].
The corresponding values for `CC1(Nc2cc(CN3C(=O)N(c4ccc(C5(C(F)(F)F)CC5)cc4)C(=O)C3(C)C)ccn2)CC1` [Compound 138, 5,5-dimethyl-1-((2-((1-methylcyclopropyl)amino)pyridin-4-yl)methyl)-3-(4-(1-(trifluoromethyl)cyclopropyl)phenyl) imidazolidine-2,4-dione] are at most 500 nM and at most 500 nM.
Taken in the same sequence, the figures for `CC1(C)C(=O)N(c2ccc(C3(C(F)(F)F)CC3)cc2)C(=O)N1Cc1ccnc(N[C@H]2CCCOC2)c1` [Compound 121, (S)-5,5-dimethyl-1-((2-((tetrahydro-2H-pyran-3-yl)amino)pyridin-4-yl)methyl)-3-(4-(1-(trifluoromethyl)cyclopropyl)phenyl) imidazolidine-2,4-dione] were at most 500 nM and at most 500 nM.
